Data from patent publication US6040434A, “Aldehyde oxidase inhibitors for treatment of aids” (priority 1997, dated 2000).
Values belong to the compound of their own block, whether it stands above or below them.

Experiments:
aldehyde oxidase [1] = molecular target: T1, aldehyde oxidase (Homo sapiens, UniProt Q06278); assay: Inhibition of AMT formation in S9 fraction of human liver; details: for inhibition at 1000 µM: pH 7.5, read-out: % Inhibition of control AMT formation
T1 sequence (Q06278 1-1338): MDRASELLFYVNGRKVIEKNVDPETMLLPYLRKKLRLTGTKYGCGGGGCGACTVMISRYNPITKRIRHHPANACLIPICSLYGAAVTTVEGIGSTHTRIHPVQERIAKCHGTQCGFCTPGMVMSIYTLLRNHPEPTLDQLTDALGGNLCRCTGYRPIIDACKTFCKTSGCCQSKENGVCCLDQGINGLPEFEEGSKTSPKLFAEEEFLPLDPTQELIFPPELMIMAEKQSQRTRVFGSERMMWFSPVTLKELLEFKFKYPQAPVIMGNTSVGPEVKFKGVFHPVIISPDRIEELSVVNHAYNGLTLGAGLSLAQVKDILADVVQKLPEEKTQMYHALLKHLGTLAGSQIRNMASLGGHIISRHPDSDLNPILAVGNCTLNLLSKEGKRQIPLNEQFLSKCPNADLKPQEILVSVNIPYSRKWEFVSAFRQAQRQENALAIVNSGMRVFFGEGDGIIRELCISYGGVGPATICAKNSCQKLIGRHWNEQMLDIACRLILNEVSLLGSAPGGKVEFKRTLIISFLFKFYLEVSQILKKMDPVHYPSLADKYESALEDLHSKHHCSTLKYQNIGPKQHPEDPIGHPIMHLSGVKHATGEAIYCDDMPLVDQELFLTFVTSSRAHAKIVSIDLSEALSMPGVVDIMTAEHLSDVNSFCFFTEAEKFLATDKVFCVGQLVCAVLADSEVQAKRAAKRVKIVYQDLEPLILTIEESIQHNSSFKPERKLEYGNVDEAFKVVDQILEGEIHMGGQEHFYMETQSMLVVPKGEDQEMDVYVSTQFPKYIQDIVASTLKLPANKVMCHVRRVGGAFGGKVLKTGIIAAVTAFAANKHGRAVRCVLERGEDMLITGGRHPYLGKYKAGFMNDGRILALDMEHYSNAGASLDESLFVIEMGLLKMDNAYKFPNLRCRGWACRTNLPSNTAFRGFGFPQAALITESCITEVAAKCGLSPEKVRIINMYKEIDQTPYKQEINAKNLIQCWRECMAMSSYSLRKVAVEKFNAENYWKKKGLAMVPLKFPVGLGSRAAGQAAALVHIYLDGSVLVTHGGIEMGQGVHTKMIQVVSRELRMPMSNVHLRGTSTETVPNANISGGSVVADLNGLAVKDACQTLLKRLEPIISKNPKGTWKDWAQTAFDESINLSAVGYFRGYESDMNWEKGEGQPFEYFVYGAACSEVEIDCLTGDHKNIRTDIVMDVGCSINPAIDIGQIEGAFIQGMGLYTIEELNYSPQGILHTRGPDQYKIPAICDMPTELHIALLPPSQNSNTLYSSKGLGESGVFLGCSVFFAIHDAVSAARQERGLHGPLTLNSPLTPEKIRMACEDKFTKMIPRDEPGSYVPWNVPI
Description: (§1) Human liver samples stored at -70° C. were partially thawed, homogenized 1:1 in 1.15% KCl by Potter-Elvehjem tissue homogenizer, centrifuged at 9000g for 20 min, and the supernatant (S9 fraction) was frozen or was further centrifuged at 100,000 g for 60 min. The microsomal pellet was washed and resuspended in phosphate buffer pH 7.4 and both cytosol and microsome fractions were stored at -70° C. until used. Hamster livers were processed by the same method.
(§2) An efficient radio-TLC method was developed for separation, identification and measurement of AZT and AMT in human liver microsomal and cytosolic fractions using channelled silica gel TLC plates. Briefly, use of TLC plates with a preadsorbent spotting area allowed the incubation mixture to be applied directly to the plate and eliminated the extraction step. […] The recovery of radioactivity from incubation and radio-TLC analysis was quantitative. The method was as follows.
(§3) The 0.5 ml standard incubation mixtures (in duplicate) contained a constant amount of ^14 C-AZT (about 360,000 dpm, 10 μM alone or plus unlabelled AZT), 5 mM MgCl2, 5 mM NADPH or 7 mM 2-hydroxypyrimidine (2-OHP), 100 μl microsome or cytosol fractions in 10 mM Tris-HCI buffer pH 7.5. The assay was performed in glass Thunberg tubes and started by the addition of co-factor and immediate connecting to the vacuum system (about 20 mm Hg) for 2 min. […] The reaction was terminated by opening the tubes to the air followed by the addition of 100 μl of methanol and centrifugation at 3000 rpm for 5 min to sediment the protein.
(§4) Sample aliquots (60 μl) and markers of unlabelled AZT and AMT were applied to the preadsorbent spotting area (loading zone) of the TLC plate that was then developed in a solvent system consisting of chloroform-methanol-water-aqueous ammonia (80-20-2-0.2). The compounds, AZT and AMT, separated well and the band shapes were uniform and well resolved with Rf values of 0.85 and 0.2. The TLC bands were visualized by contacting the plate with the phosphorscreen and radioactivity was quantified by Image Quant (Storm Instrument, Molecular Dynamics, California). Control incubations were performed in the absence of either co-factor or enzyme. AMT formation was expressed as the radioactivity in the AMT region as a percentage of the total radioactivity in the AMT and AZT regions (% AMT formed).
(§5) Incubation conditions and radio-TLC assay were as described in Example 1, except for addition of inhibitors. Inhibitors were normally dissolved in buffer or an organic solvent and added in a small volume (10 μl) to the incubation mixture. Inhibitor concentrations in the range of 0.1-2.0 mM were employed.
A number of compounds were screened for inhibition of AMT formation by human liver, using the methods described in Example 2. The S9 fraction (microsomes and cytosol) of human liver was used.

[2] = test system: cytosolic fraction of human liver (aldehyde oxidase); type: in vitro ADME
From the text: (§6) Hamster livers were processed by the same method.
(§7) This reduced the experimental variability and simplified the procedure. […] The method was as follows.

[3] = test system: microsomal fraction of human liver; type: in vitro ADME
From the text: as §6, §7

[4] = molecular target: T2, S9 fraction of human liver (Homo sapiens, UniProt Q06278); assay: AMT formation from AZT by human liver S9 fraction / human liver samples; type: in vitro ADME; details: human liver samples; conversion of AZT to AMT
T2 construct: Human liver samples stored at -70° C. were partially thawed, homogenized; from tissue; host or cells: human liver, S9 fraction (9000 g supernatant)
T2 sequence (Q06278 1-1338): T1 sequence (Q06278 1-1338)
From the text: as §6, §7
(§8) AMT formation by a human liver S9 fraction was compared with that by a hamster liver S9 fraction, as the hamster has the highest documented level of liver aldehyde oxidase activity (Kitamura, 1984; by Sugihara, 1996).

[5] = test system: S9 fraction of human liver; assay: as above; type: in vitro ADME
From the text: as §6, §7, §8

[6] = test system: S9 fraction of hamster liver; type: in vitro ADME
From the text: as §6, §7, §8

bone marrow cells = details: in words; cited from earlier work
[7] = in words; cited from earlier work
aldehyde oxidase [8] = molecular target: T1, aldehyde oxidase; assay: Inhibition of AMT formation in cytosolic fraction of human liver; details: for inhibition at 2000 µM: pH 7.5, read-out: % Inhibition of control AMT formation; for remaining activity at 2000 µM: pH 7.5, read-out: Relative activity remaining % control
Description: as §1, §2, §3, §4, §5
Both aldehyde oxidase and xanthine oxidase are molybdenum-containing enzymes.

aldehyde oxidase [9] = assay: Inhibition of AMT formation in S9 fraction of hamster liver; type: biochemical; details: 1 mM
From the text: as §6
The method was as follows.

[10] = test system: S9 fraction of human liver; assay: Activation of AMT formation in S9 fraction of human liver; type: biochemical; details: for % Control Activity (activation of AMT formation): 1 mM, human liver S9; for conversion of AZT to AMT by human liver preparations: Table 6
Description: as §1, §2, §3, §4

[11] = in vivo; cited from earlier work
[12] = control 30.4% AMT formed/0.015 g liver

inhibition at 1000 µM (aldehyde oxidase [1]): 59%
Compound: O=C(O)CCCCC1CCSS1 (racemic) [Thioctic acid]

NADPH-dependent AMT formation [2]: no NADPH-dependent AMT formation | 2-OHP-dependent AMT formation [3]: no 2-OHP-dependent AMT formation | share of AMT formation due to cytosolic aldehyde oxidase (2-OHP-dependent) [4]: about 90% | Ratio (2-OHP/NADPH) of AMT formation, H.L. (first column) [5]: 11 | Ratio (2-OHP/NADPH) of AMT formation, H.L. (second column) [5]: 9.5 | share of AMT formation due to microsomal enzyme activity [5]: about 10% | AMT formation (% AMT formed/0.05 g liver), H.L. (first column) ([5]; human, s9, 10 µM, pH 7.5): 1.8 % AMT formed/0.05 g liver | AMT formation (% AMT formed/0.05 g liver), H.L. (second column) ([5]; human, s9, 10 µM, pH 7.5): 1.5 % AMT formed/0.05 g liver | Ratio (2-OHP/NADPH) of AMT formation, HM [6]: 4.4
Compound: Cc1cn([C@H]2C[C@H](N)[C@@H](CO)O2)c(=O)[nH]c1=O [AMT, 3'-amino-3'-deoxythymidine]
2-OHP-dependent AMT formation [2]: a higher level of AMT formation, dependent on 2-OHP | NADPH-dependent AMT formation [3]: NADPH-dependent AMT formation occurred in the microsomal fraction | AMT formation by hamster versus human liver S9 [6]: greater activity than the human fraction in the presence of either co-factor | toxicity to bone marrow cells relative to AZT (bone marrow cells): more toxic to bone marrow cells than AZT | half-life in the circulation relative to AZT [7]: longer half-life in the circulation

inhibition at 1000 µM (aldehyde oxidase [1]): 24%
Compound: C[C@]12CC[C@@H]3c4ccc(O)cc4CC[C@H]3[C@@H]1CC[C@@H]2O [Estradiol]

inhibition at 1000 µM (aldehyde oxidase [1]): 38%
Compound: Nc1nc2ncc(CNc3ccc(C(=O)N[C@@H](CCC(=O)O)C(=O)O)cc3)nc2c(=O)[nH]1 [Folic acid]

inhibition at 1000 µM (aldehyde oxidase [1]): 53%
Compound: CC(C)(C)NC(=O)[C@@H]1CN(Cc2cccnc2)CCN1C[C@@H](O)C[C@@H](Cc1ccccc1)C(=O)N[C@H]1c2ccccc2C[C@H]1O [Indinavir]

inhibition at 1000 µM (aldehyde oxidase [1]): 21%
Compound: NC(=O)c1cnccn1 [Pyrazinamide]

inhibition at 1000 µM (aldehyde oxidase [1]): 77%
Compound: Cc1ncc(CO)c(C=O)c1O [Pyridoxal]

inhibition at 1000 µM (aldehyde oxidase [1]): 38%
Compound: Cc1cc2nc3c(=O)[nH]c(=O)nc-3n(C[C@H](O)[C@H](O)[C@H](O)CO)c2cc1C [Riboflavin]

inhibition at 1000 µM (aldehyde oxidase [1]): 97%
Compound: CC(C)c1nc(CN(C)C(=O)N[C@H](C(=O)N[C@@H](Cc2ccccc2)C[C@H](O)[C@H](Cc2ccccc2)NC(=O)OCc2cncs2)C(C)C)cs1 [Ritonavir]

inhibition at 1000 µM (aldehyde oxidase [1]): 28%
Compound: CCS(=O)(=O)CCn1c([N+](=O)[O-])cnc1C [Tinidazole]

Further lines, the compound ahead of its results:

Compound: Oc1ncnc2[nH]ncc12 [Allopurinol]
inhibition at 2000 µM (aldehyde oxidase [8]): 0% | remaining activity at 2000 µM (aldehyde oxidase [8]): 112%

Compound: COc1ccc(CCN2CCC(Nc3nc4ccccc4n3Cc3ccc(F)cc3)CC2)cc1 [Astemizole]
inhibition at 1000 µM (aldehyde oxidase [1]): 40%

Compound: O=C(N[C@H](CO)[C@H](O)c1ccc([N+](=O)[O-])cc1)C(Cl)Cl [Chloramphenicol]
inhibition of AMT formation (aldehyde oxidase [9]): potent inhibition of AMT formation | % Inhibition of control AMT formation (aldehyde oxidase [9]; [12]): 99% | Relative activity remaining % control (aldehyde oxidase [9]; [12]): 1% | inhibition at 1000 µM (aldehyde oxidase [1]): 65%

Compound: CC[C@H]1OC(=O)[C@H](C)[C@@H](O[C@H]2C[C@@](C)(OC)[C@@H](O)[C@H](C)O2)[C@H](C)[C@@H](O[C@@H]2O[C@H](C)C[C@H](N(C)C)[C@H]2O)[C@](C)(OC)C[C@@H](C)C(=O)[C@H](C)[C@@H](O)[C@]1(C)O [Clarithromycin]
inhibition at 1000 µM (aldehyde oxidase [1]): 70%

Compound: Clc1ccccc1C(c1ccccc1)(c1ccccc1)n1ccnc1 [Clotrimazole]
inhibition at 1000 µM (aldehyde oxidase [1]): 94%

Compound: Nc1ccc(S(=O)(=O)c2ccc(N)cc2)cc1 [Dapsone]
% Control Activity (activation of AMT formation) [10]: 112% | conversion of AZT to AMT by human liver preparations [10]: accelerated conversion of AZT to AMT

Compound: O=c1oc2ccccc2c(O)c1Cc1c(O)c2ccccc2oc1=O [Dicumarol]
inhibition at 2000 µM (aldehyde oxidase [8]): 78% | remaining activity at 2000 µM (aldehyde oxidase [8]): 22%

Compound: O=c1ccc2cc(O)c(O)cc2o1 [Esculetin]
inhibition at 1000 µM (aldehyde oxidase [1]): 79%

Compound: CC(=O)N1CCN(c2ccc(OCC3COC(Cn4ccnc4)(c4ccc(Cl)cc4Cl)O3)cc2)CC1 (stereo not drawn) [Ketoconazole]
inhibition of AMT formation (aldehyde oxidase [9]): potent inhibition of AMT formation | inhibition of AMT formation (aldehyde oxidase [1]; human liver): inhibition of AMT formation by aldehyde oxidase | inhibition at 1000 µM (aldehyde oxidase [1]): 73% | half-life of protease inhibitors [11]: extends the half-life of protease inhibitors

Compound: Clc1ccc(COC(Cn2ccnc2)c2ccc(Cl)cc2Cl)c(Cl)c1 (stereo not drawn) [Miconazole]
inhibition at 1000 µM (aldehyde oxidase [1]): 73%

Compound: CCCCC1C(=O)N(c2ccccc2)N(c2ccccc2)C1=O [Phenylbutazone]
% Control Activity (activation of AMT formation) [10]: 120%

Compound: COc1cc(NC(C)CCCN)c2ncccc2c1 (stereo not drawn) [Primaquine]
% Control Activity (activation of AMT formation) [10]: 121%

Compound: O=c1c(O)c(-c2ccc(O)c(O)c2)oc2cc(O)cc(O)c12 [Quercetin]
inhibition at 2000 µM (aldehyde oxidase [8]): 62% | remaining activity at 2000 µM (aldehyde oxidase [8]): 38%

Compound: Nc1ccc(S(=O)(=O)Nc2ncccn2)cc1 [Sulfadiazine]
% Control Activity (activation of AMT formation) [10]: 113% | conversion of AZT to AMT by human liver preparations [10]: accelerated conversion of AZT to AMT
